Columns and labels:
[1] = test system: S1 domain of the SARS-CoV S protein; type: binding
[2] = test system: SARS-CoV S protein-expressing 293 T cells and ACE-2-expressing 293 T cells; type: cell-based, human

Q: Which results are given for soluble ACE-2?
A: blocking of association of S1-Ig (S1 domain) with Vero E6 cells [1]: blocked association; blocking of syncytia formation mediated by the SARS-CoV S protein [2]: partially blocked
